The source of these data is EP4458830A1, “TRICYCLIC COMPOUND, METHOD FOR PREPARING SAME, AND USE THEREOF” (Sichuan Kelun-Biotech Biopharmaceutical Co., Ltd., priority 2021, dated 2023).

In this test the target is T1, human TLR7 (Homo sapiens, UniProt Q9NYK1).
T1 construct: host or cells: HEK-Blue hTLR7 cells (HEK293-derived reporter line; that the line is stably transfected with the human TLR7 gene is own knowledge of the vendor's product)
T1 sequence (Q9NYK1 27-1049): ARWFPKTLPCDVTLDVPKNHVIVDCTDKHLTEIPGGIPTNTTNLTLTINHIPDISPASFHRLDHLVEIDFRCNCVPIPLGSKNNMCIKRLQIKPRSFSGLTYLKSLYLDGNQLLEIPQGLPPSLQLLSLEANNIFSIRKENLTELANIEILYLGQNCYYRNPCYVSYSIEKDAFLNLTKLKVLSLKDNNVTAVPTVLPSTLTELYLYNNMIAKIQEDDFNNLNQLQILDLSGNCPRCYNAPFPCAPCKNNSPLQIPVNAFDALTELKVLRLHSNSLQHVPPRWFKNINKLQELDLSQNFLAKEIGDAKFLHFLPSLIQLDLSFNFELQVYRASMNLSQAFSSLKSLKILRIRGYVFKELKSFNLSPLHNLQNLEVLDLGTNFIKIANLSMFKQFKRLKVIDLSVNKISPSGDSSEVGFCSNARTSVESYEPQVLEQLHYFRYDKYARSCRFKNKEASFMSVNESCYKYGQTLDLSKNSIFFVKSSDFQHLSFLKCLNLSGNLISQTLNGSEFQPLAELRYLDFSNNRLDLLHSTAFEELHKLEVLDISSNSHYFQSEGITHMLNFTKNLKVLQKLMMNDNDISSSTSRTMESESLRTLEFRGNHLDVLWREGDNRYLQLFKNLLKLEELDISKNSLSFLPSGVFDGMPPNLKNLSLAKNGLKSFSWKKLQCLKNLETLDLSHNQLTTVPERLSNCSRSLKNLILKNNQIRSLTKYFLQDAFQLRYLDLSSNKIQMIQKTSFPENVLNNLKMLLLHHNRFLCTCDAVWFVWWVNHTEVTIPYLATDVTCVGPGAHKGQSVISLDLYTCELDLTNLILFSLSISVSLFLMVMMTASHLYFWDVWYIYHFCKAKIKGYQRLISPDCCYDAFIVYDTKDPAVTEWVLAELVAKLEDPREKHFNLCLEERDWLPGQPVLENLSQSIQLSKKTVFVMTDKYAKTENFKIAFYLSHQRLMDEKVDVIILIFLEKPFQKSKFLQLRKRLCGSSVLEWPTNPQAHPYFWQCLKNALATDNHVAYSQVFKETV
Put plainly: Agonistic activity of compounds on HEK-Blue hTLR7 cells (QUANTI-Blue reporter, OD620). Format: cell-based. The conditions noted are these: for EC50 / Emax: HEK-Blue hTLR7 cells; for EC50: 20 h incubation; for Emax: OD620 at which the activation effect reached the maximum; for activation effect on human TLR7: summary in words. As to the method: • 1. HEK-Blue hTLR7 cells (Invivogen) were cultured in DMEM medium (Hyclone) containing 10% FBS heat-inactivated fetal bovine serum (Corning). On the day of detection, the cell state was observed under a microscope, the cells were collected and resuspended, and the cell concentration was adjusted after counting, 50 µL per well, the total amount of cells was 2×10^4, and the cells were inoculated in a 96-well plate. • 2. After the cells adhered to the wall overnight, 50 µL of the test compound at different concentrations was added into the well plate, so that the final concentrations were 100 µM, 33.3 µM, 11.11 µM, 3.70 µM, 1.23 µM, 0.41 µM, 0.14 µM, 0.05 µM, 0 µM, and the final concentration of DMSO was 1%. The compound was incubated with the cells in a 37°C, 5% CO2 incubator for 20 h. • 3. After the incubation, observation under microscope was performed to determine the maximum signal well, the states of the cells with the highest and lowest concentrations of the compound, and whether the compound will crystalize at high concentration. 10 µL of cell culture supernatant was taken and transferred to a new 96-well transparent plate, 90 µL of QUANTI-Blue (Invivogen) detection reagent was added to each well, and incubated at 37°C for 3 h, and OD620 was read with a multifunctional microplate reader (BMG LABTECH). • 4. EC50 was calculated by fitting with Graphpad Prism software log(agonist) vs. response - Variable slope, and Emax was the OD620 at which the activation effect of the test compound reached the maximum.

For `COCCc1nc2c(N)nc3ccsc3c2n1CCCCN` [Compound 4, 1-(4-aminobutyl)-2-(2-methoxyethyl)-1H-imidazo[4,5-d]thieno[3,2-b]pyridine-4-amine], the EC50 was found to be 2410 nM, the Emax is given as 1.74 OD620 and the “activation effect on human TLR7” value is reported as “strong activation effect”.
Regarding `CCOCc1nc2c(N)nc3ccsc3c2n1CCCCN` [Compound 5, 1-(4-aminobutyl)-2-(2-ethoxymethyl)-1H-imidazo[4,5-d] thieno[3,2-b]pyridine-4-amine], the response was half-maximal at 3250 nM (EC50), the Emax came out at 1.46 OD620 and the “activation effect on human TLR7” value was “strong activation effect”.
For `CCCCc1nc2c(N)nc3cc(C4=CCN(C)CC4)sc3c2[nH]1` [Compound 8, 2-butyl-7-(1-methyl-1,2,3,6-tetrahydropyridin-4-yl)-1H-imidazo [4,5-d]thieno[3,2-b]pyridine-4-amine] the same measures were 2500 nM, 0.56 OD620 and “strong activation effect”.
For `CCCCc1nc2c(N)nc3cc(C)sc3c2n1CC1CCN(CCOCCOCCN)CC1` [Compound 15, 1-((1-(2-(2-(2-aminoethoxy)ethoxy)ethyl)piperidin-4-yl)methyl)-2-butyl-7-methyl-1H-imidazo[4,5-d]thieno[3,2-b]pyridine-4-amine] the same measures were 1420 nM, 2.40 OD620 and “strong activation effect”.
As for `CCCCc1nc2c(N)nc3cc(C)sc3c2n1CC1CCN(CCOCCOCCOCCOCCOCCOCCOC)CC1` [Compound 16, 1-((1-(2,5,8,11,14,17,20-heptaoxadocosan-22-yl)piperidin-4-yl)methyl)-2-butyl-7-methyl-1H-imidazo[4,5-d]thieno[3,2-b]pyridine-4-amine], the response was half-maximal at 1690 nM (EC50), the Emax is listed as 2.18 OD620 and the “activation effect on human TLR7” value is recorded as “strong activation effect”.
As for `CCCCc1nc2c(N)nc3cc(C)sc3c2n1CC1CCN(C(=O)CCOCCOCCN)CC1` [Compound 17, 1-(4-((4-amino-2-butyl-7-methyl-1H-imidazo[4,5-d]thieno[3,2-b]pyridin-1-yl)methyl)piperidin-1-yl)-3-(2-(2-aminoethoxy)ethoxy)propan-1-one], the EC50 turned out to be 1160 nM, the Emax came to 2.23 OD620 and the “activation effect on human TLR7” value is listed as “strong activation effect”.
As for `CCCCc1nc2c(N)nc3ccsc3c2n1CC1CCNCC1` [Compound 25, 2-butyl-1-(piperidin-4-ylmethyl)-1H-imidazo[4,5-d]thieno[3,2-b] pyridine-4-amine], the EC50 was 140 nM, the Emax is 2.08 OD620 and the “activation effect on human TLR7” value is reported as “strong activation effect”.
The like results for `CCCCc1nc2c(N)nc3cc(C)sc3c2n1CC1CCOCC1` [Compound 26, 2-butyl-7-methyl-1-((tetrahydro-2H-pyran-4-yl)methyl)-1H-imidazo[4,5-d]thieno[3,2-b]pyridine-4-amine] were, in that order, 50 nM, 1.78 OD620 and “strong activation effect”.
For `CCCCc1nc2c(N)nc3cc(C)sc3c2n1CC1CCN(C)CC1` [Compound 28, 2-butyl-7-methyl-1-((1-methylpiperidin-4-yl)methyl)-1H-imidazo[4,5-d]thieno[3,2-b]pyridine-4-amine] the same measures were 200 nM, 1.39 OD620 and “strong activation effect”.
As for `CCCCc1nc2c(N)nc3cc(C4CCN(C)CC4)sc3c2n1C` [Compound 32, 2-butyl-1-methyl-7-(1-methylpiperidin-4-yl)-1H-imidazo[4,5-d] thieno[3,2-b]pyridine-4-amine], the EC50 was 1260 nM, the Emax was found to be 0.91 OD620 and the “activation effect on human TLR7” value is reported as “strong activation effect”.
For `CCCCc1nc2c(N)nc3cc(C4CCN(C)CC4)sc3c2n1CC1CCOCC1` [Compound 34, 2-butyl-7-(1-methylpiperidin-4-yl)-1-((tetrahydro-2H-pyran-4-yl)methyl)-1H-imidazo[4,5-d]thieno[3,2-b]pyridine-4-amine], it took 83 nM to reach a half-maximal effect (EC50), the Emax was determined as 1.21 OD620 and the “activation effect on human TLR7” value was “strong activation effect”.
The like results for `CCCCc1nc2c(N)nc3cc(C4CCN(C)CC4)sc3c2n1CC1CCN(C)CC1` [Compound 38, 2-butyl-7-(1-methylpiperidin-4-yl)-1-((1-methylpiperidin-4-yl)methyl)-1H-imidazo[4,5-d]thieno[3,2-b]pyridine-4-amine] were, in that order, 1300 nM, 0.49 OD620 and “strong activation effect”.
In the case of `CCCCc1nc2c(N)nc3cc(C4CCOCC4)sc3c2n1CC1CCN(C)CC1` [Compound 40, 2-butyl-1-((1-methylpiperidin-4-yl)methyl)-7-(tetrahydro-2H-pyran-4-yl)-1H-imidazo[4,5-d]thieno[3,2-b]pyridine-4-amine], the EC50 amounted to 580 nM, the Emax is 1.83 OD620 and the “activation effect on human TLR7” value was “strong activation effect”.
For `CCCCc1nc2c(N)nc3cc(C4CCNCC4)sc3c2n1CC1CCN(CCOC)CC1` [Compound 41, 2-butyl-7-(hexahydropyridin-4-yl)-1-{[1-(2-methoxyethyl)hexahydropyridin-4-yl]methyl}thieno[3,2-b]imidazo[4,5-d]pyridine-4-amine] the same measures were 5050 nM, 0.84 OD620 and “strong activation effect”.
For `CCCCc1nc2c(N)nc3cc(C4CCN(C)CC4)sc3c2n1CC1CCN(CCOC)CC1` [Compound 42, 2-butyl-1-{[1-(2-methoxyethyl)hexahydropyridin-4-yl]methyl}-7-(1-methylhexahydropyridin-4-yl)thieno[3,2-b]imidazo[4,5-d]pyridine-4-amine] the same measures were 1430 nM, 0.65 OD620 and “strong activation effect”.
The like results for `COCCc1nc2c(N)nc3ccsc3c2n1CC1CCNCC1` [Compound 55, 1-(hexahydropyridin-4-ylmethyl)-2-(2-methoxyethyl) thieno[3,2-b]imidazo[4,5-d]pyridine-4-amine] were, in that order, 1480 nM, 1.44 OD620 and “strong activation effect”.
Regarding `COCCc1nc2c(N)nc3ccsc3c2n1CC1CCN(C)CC1` [Compound 56, 2-(2-methoxyethyl)-1-[(1-methylhexahydropyridin-4-yl)methyl] thieno[3,2-b]imidazo[4,5-d]pyridine-4-amine], a half-maximal effect (EC50) was put at 460 nM, the Emax is reported as 1.41 OD620 and the “activation effect on human TLR7” value is given as “strong activation effect”.
For `CCCCc1nc2c(N)nc3cc(C4CCN(C(C)=O)CC4)sc3c2n1CC1CCOCC1` [Compound 59, 1-{4-[4-amino-2-butyl-1-(3,4,5,6-tetrahydro-2H-pyran-4-ylmethyl)thieno[3,2-b]imidazo[4,5-d]pyridin-7-yl]hexahydropyridin-1-yl}ethyl-1-one] the same measures were 40 nM, 1.45 OD620 and “strong activation effect”.
